# Measurements taken from ChEMBL document CHEMBL1667844, “Synthesis, structure-activity relationships and preliminary antitumor evaluation of benzothiazole-2-thiol derivatives as novel apoptosis inducers” (Bioorg Med Chem Lett, 2011).
# Assays:
# [1] = system: HepG2; assay: Cytotoxicity against human HepG2 cells after 48 hrs by MTT assay; format: functional, cell-based; conditions: HepG2, 48 h
# [2] = system: MCF7; assay: Cytotoxicity against human MCF7 cells after 48 hrs by MTT assay; format: functional, cell-based; conditions: MCF7, 48 h
# [3] = system: A-375; assay: Cytotoxicity against human A375 cells after 48 hrs by MTT assay; format: functional, cell-based; conditions: A-375, 48 h
# [4] = system: HCT-116; assay: Cytotoxicity against human HCT116 cells after 48 hrs by MTT assay; format: functional, cell-based; conditions: HCT-116, 48 h
# [5] = system: HepG2; assay: Induction of apoptosis in human HepG2 cells assessed as morphological changes after 24 hrs using propidium iodide staining by fluorescence microscopic analysis; format: functional, cell-based
# [6] = system: HepG2; assay: Induction of apoptosis in human HepG2 cells assessed as DNA content at sub-G1 phase at 0.3 uM after 24 hrs using propidium iodide staining by flow cytometry (reference value: 4.3 %); format: functional
# [7] = system: HepG2; assay: Induction of apoptosis in human HepG2 cells assessed as DNA content at sub-G1 phase at 0.6 uM after 24 hrs using propidium iodide staining by flow cytometry (reference value: 4.3 %); format: functional
# [8] = system: SW480; assay: Cytotoxicity against human SW480 cells after 48 hrs by MTT assay; format: functional, cell-based; conditions: SW480, 48 h
# [9] = system: SW-620; assay: Cytotoxicity against human SW620 cells after 48 hrs by MTT assay; format: functional, cell-based; conditions: SW-620, 48 h
# [10] = system: MDA-MB-468; assay: Cytotoxicity against human MDA-MB-468 cells after 48 hrs by MTT assay; format: functional, cell-based; conditions: MDA-MB-468, 48 h
# [11] = system: HeLa; assay: Cytotoxicity against human HeLa cells after 48 hrs by MTT assay; format: functional, cell-based
# [12] = system: HepG2; assay: Induction of apoptosis in human HepG2 cells assessed as DNA content at sub-G1 phase after 24 hrs using propidium iodide staining by flow cytometry; format: functional, cell-based
# [13] = system: SK-OV-3; assay: Cytotoxicity against human SKOV3 cells after 48 hrs by MTT assay; format: functional, cell-based; conditions: SK-OV-3, 48 h
# [14] = system: SK-BR-3; assay: Cytotoxicity against human SK-BR-3 cells after 48 hrs by MTT assay; format: functional, cell-based; conditions: SK-BR-3, 48 h
# [15] = system: HepG2; assay: Induction of apoptosis in human HepG2 cells assessed as DNA content at sub-G1 phase at 1.2 uM after 24 hrs using propidium iodide staining by flow cytometry (reference value: 4.3 %); format: functional
# [16] = system: A549; assay: Cytotoxicity against human A549 cells after 48 hrs by MTT assay; format: functional, cell-based; conditions: A549, 48 h
# [17] = system: BXPC-3; assay: Cytotoxicity against human BxPC3 cells after 48 hrs by MTT assay; format: functional, cell-based; conditions: BXPC-3, 48 h
# [18] = system: A-431; assay: Cytotoxicity against human A431 cells after 48 hrs by MTT assay; format: functional, cell-based; conditions: A-431, 48 h
# [19] = system: PC-3; assay: Cytotoxicity against human PC3 cells after 48 hrs by MTT assay; format: functional, cell-based; conditions: PC-3, 48 h
Structure (SMILES),IC50 [1],IC50 [2],other results
COc1ccc(CNC(=O)CSc2nc3ccc(NC(=O)c4ccccc4)cc3s2)cc1,12.7 µM,21.2 µM,
O=C(CSc1nc2ccc(NC(=O)c3ccc(Cl)cc3)cc2s1)NCc1ccccc1,25.4 µM,25.9 µM,
CNC(=O)CSc1nc2ccc(NC(=O)c3ccc([N+](=O)[O-])cc3)cc2s1,> 100 µM,> 100 µM,
O=C(CSc1nc2ccc(NC(=O)CCl)cc2s1)NCc1ccc(Cl)cc1,1.8 µM,4.9 µM,
COc1ccccc1C(=O)Nc1ccc2nc(SCC(=O)NCc3ccc(Cl)cc3)sc2c1,0.6 µM,1.1 µM,IC50 [3]: 2.2 µM; IC50 [4]: 1.5 µM; Activity [5]: Dose-dependent effect; Activity [6]: 19.2%; Activity [7]: 35.9%; IC50 [8]: 5.4 µM; IC50 [9]: 4.2 µM; IC50 [10]: 2.3 µM; IC50 [11]: 4.2 µM; Activity [12]: Dose-dependent effect; IC50 [13]: 6 µM; IC50 [14]: 1.2 µM; Activity [15]: 55.4%; IC50 [16]: 2 µM; IC50 [17]: 4.4 µM; IC50 [18]: 1.1 µM; IC50 [19]: 4.6 µM
COc1ccc(CNC(=O)CSc2nc3ccc(NC(=O)c4ccc(Cl)cc4)cc3s2)cc1,7.4 µM,19.2 µM,
CNC(=O)CSc1nc2ccc(NC(=O)c3ccc(Cl)cc3)cc2s1,15.3 µM,29.4 µM,
O=C(CSc1nc2ccc(NC(=O)c3ccccc3)cc2s1)NCc1ccccc1,34.2 µM,35.6 µM,
COc1ccc(CNC(=O)CSc2nc3ccc(NC(=O)c4ccccc4OC)cc3s2)cc1,2.1 µM,9.3 µM,
CC(=O)Nc1ccc2nc(SCC(=O)NCc3ccc(Cl)cc3)sc2c1,6.7 µM,10.2 µM,
CC(=O)Nc1ccc2nc(SCC(=O)NCc3ccccc3)sc2c1,9.2 µM,17.6 µM,
O=C(CSc1nc2ccc(NC(=O)CCl)cc2s1)NCc1ccccc1,1.1 µM,4.2 µM,IC50 [3]: 1.8 µM; IC50 [4]: 1.3 µM; IC50 [8]: 5.2 µM; IC50 [9]: 1.2 µM; IC50 [10]: 4.1 µM; IC50 [11]: 4.9 µM; IC50 [13]: 4.8 µM; IC50 [14]: 8.8 µM; IC50 [16]: 4 µM; IC50 [17]: 6.6 µM; IC50 [18]: 4.4 µM; IC50 [19]: 6.1 µM
CNC(=O)CSc1nc2ccc(NC(=O)c3ccccc3OC)cc2s1,18.5 µM,23.4 µM,
CNC(=O)CSc1nc2ccc(NC(=O)c3ccccc3)cc2s1,26.5 µM,34.4 µM,
O=C(CSc1nc2ccc(NC(=O)c3ccc([N+](=O)[O-])cc3)cc2s1)NCc1ccc(Cl)cc1,> 100 µM,> 100 µM,
COc1ccc(CNC(=O)CSc2nc3ccc(NC(=O)c4ccc([N+](=O)[O-])cc4)cc3s2)cc1,> 100 µM,> 100 µM,
CNC(=O)CSc1nc2ccc(NC(=O)CCl)cc2s1,1.9 µM,5 µM,
O=C(CSc1nc2ccc(NC(=O)c3ccc([N+](=O)[O-])cc3)cc2s1)NCc1ccccc1,> 100 µM,> 100 µM,
O=C(CSc1nc2ccc(NC(=O)c3ccc(Cl)cc3)cc2s1)NCc1ccc(Cl)cc1,17.8 µM,29.3 µM,
COc1ccc(CNC(=O)CSc2nc3ccc(NC(=O)CCl)cc3s2)cc1,2 µM,5.1 µM,
COc1ccccc1C(=O)Nc1ccc2nc(SCC(=O)NCc3ccccc3)sc2c1,8 µM,17.2 µM,
CNC(=O)CSc1nc2ccc(NC(C)=O)cc2s1,> 100 µM,> 100 µM,
COc1ccc(CNC(=O)CSc2nc3ccc(NC(C)=O)cc3s2)cc1,11.2 µM,20.5 µM,
O=C(CSc1nc2ccc(NC(=O)c3ccccc3)cc2s1)NCc1ccc(Cl)cc1,30.1 µM,33.7 µM,
